Consider two molecules from US10933053B2, “Treating infections with ceftolozane/tazobactam in subjects having impaired renal function” (MERCK SHARP & DOHME CORP., priority 2013, dated 2021).

Series [1] can be described thus: Pharmacokinetics of ceftolozane/tazobactam in healthy adults, single and multiple IV doses. The note with it: for Cmax: mean (CV %); for Tmax: median (minimum, maximum). The source says: The intravenous formulation of CXA-201 can be prepared by reconstituting a fixed dose combination mixture of two active components (ceftolozane and tazobactam), and intravenously administering the reconstituted pharmaceutical composition. The pharmacokinetic (PK) profile of ceftolozane/tazobactam has been studied in several preclinical and clinical studies.
The pharmacokinetic (PK) profile of ceftolozane/tazobactam has been studied in several preclinical and clinical studies.

A short description of series [2]: Binding to human plasma proteins. The class given is in vitro ADME. The note with it: human, plasma; value used in Monte Carlo simulation; read-out: unbound fraction (Fu).
Series [3] is described as follows: Phase I studies: impact of renal function on PK and safety of ceftolozane/tazobactam. The class given is in vivo, human. The note with it: for median AUC0-∞ increase vs normal renal function / median Cmax increase vs normal renal function: moderate renal impairment; for median AUC0-∞ increase vs dose-normalized exposure in normal renal function / median Cmax increase vs dose-normalized exposure in normal renal function: severe renal impairment. The source says: Male and female subjects, aged 18 to 79 years, with varying degrees of renal function were enrolled in two, prospective, open-label, phase I studies of intravenous ceftolozane/tazobactam. A total of 36 subjects were enrolled into cohorts based on degree of renal function: normal (n=11), mild impairment (n=6), moderate impairment (n=7), severe impairment (n=6), and ESRD on HD (n=6). To ensure subjects with ESRD were receiving effective HD, a target adequacy of HD calculated from the pre- and post-blood urea nitrogen ratios (Kt/V) of at least 1.2 for a minimum of 3 months prior to enrollment was required.
All cohorts received ceftolozane/tazobactam as an intravenous infusion over 1 h. The normal, mild, and moderate renal impairment cohorts received a single dose of ceftolozane/tazobactam 1,000 mg/500 mg; the severe renal impairment cohort received a single dose of ceftolozane/tazobactam 500 mg/250 mg; the ESRD cohort received a dose of ceftolozane/tazobactam 500 mg/250 mg initiated at the end of HD on day 1 and another dose initiated 2 h before HD on day 4. Subjects with ESRD underwent HD for 3 to 4 h using a high-flux membrane as scheduled; average dialysis flow rate was 600 to 800 ml/min. Revaclear hemodialyzers (Gambro, Stockholm, Sweden) were used in 5 subjects (ultrafiltration coefficient 50 to 60 ml/h/mmHg, high flux membrane of 1.4 to 1.8 m^2) and a CT 190G hemodialyzers (Baxter Healthcare, McGaw Park, Ill.) was used in 1 subject (ultrafiltration coefficient 36 ml/h/mmHg, high flux membrane of 1.9 m^2). The average blood flow rate was 400 to 600 ml/min with the exception of one subject with rates between 264 and 400 ml/min.
Plasma concentrations of ceftolozane and tazobactam were measured prior to, during, and following administration of ceftolozane/tazobactam. Blood samples were collected 30 min prior to administration, at the end of administration and at 5, 15, and 30 min and 1, 2, 3, 5, 7, 9, 11, 15, 25, and 35 h after completion of ceftolozane/tazobactam administration in the normal, mild, and moderate renal impairment cohorts. Severe renal impairment and ESRD cohorts off HD had samples taken 30 min prior to administration and at 0.5, 1, 1.5, 2, 3, 6, 9, 12, 24, 36, and 48 h after the start of administration. On the day of and following HD, the subjects with ESRD had samples taken 30 min prior to administration and at 0.5, 1, 1.5, 2, 3, 4, 5, 6, 9, 12, 24, 36, and 44 h after the start of the administration. The entire dialysate was collected at each of the following intervals: 0 to 1, 1 to 2, 2 to 3, and 3 h to the end of dialysis. Urine for PK analysis was obtained in the normal, mild, and moderate cohorts at 0 to 2, 2 to 4, 4 to 8, 8 to 12, 12 to 24, and 24 to 36 h after the start of ceftolozane/tazobactam administration. In the ESRD and severe renal impairment cohorts, urine was collected during the confinement period pre-dose, 0 to 24 h, and 24 to 48 h after the start of the administration, unless the subject was anuric. A validated LC/MS/MS method was utilized to analyze all plasma, urine, and dialysate samples for ceftolozane and tazobactam (MicroConstants Inc., San Diego, Calif.) (4). The lower limit of quantification (LLOQ) in plasma was 0.25 μg/ml for ceftolozane and 0.1 μg/ml for tazobactam. The assay was linear between 0.25 and 150 μg/ml for ceftolozane and between 0.1 and 50 μg/ml for tazobactam. […] The LLOQ in dialysate for both ceftolozane and tazobactam was 1 ng/ml and the assay was linear between 1 and 500 ng/ml. […] The LLOQ for ceftolozane and tazobactam in urine was 5 and 10 μg/ml, respectively, and the assay was linear between 5 and 5,000 μg/ml for ceftolozane and between 10 and 10,000 μg/ml for tazobactam.

Series [4] in a line: clinical. The settings on record: human, in vivo, t1/2, geometric mean. How it is done:
The extent of ceftolozane exposure increases with decreasing renal function. […] In subjects with moderate renal impairment, exposure approximately doubles relative to that in subjects with normal renal function.
For tazobactam, this estimated exposure from a dose of 125 mg in subjects with severe renal impairment not on hemodialysis is similar to that achieved with 500 mg tazobactam in subjects with normal renal function (23.8 μg·h/mL).

Usually half-life stands for the time needed for the level to fall by half in the phase considered. Usually AUC(0-t) stands for the area under the concentration-time curve up to a stated or last time point. In general, Cmax refers to the maximum level reached in the sampled fluid or tissue. Broadly, the Tmax is the time at which the peak concentration occurs. A word on the fraction unbound: it is free concentration divided by total concentration. One may read the clearance as the rate of elimination divided by the concentration.

As for `C[C@]1(Cn2ccnn2)[C@H](C(=O)O)N2C(=O)C[C@H]2S1(=O)=O` [Tazobactam, tazobactam], in series [1] (healthy volunteers), the “excreted in the urine as the unchanged parent drug” value came out at 80%. The half-life in series [1] (human, in vivo, intravenous, terminal elimination half-life (t1/2β), healthy volunteers / normal renal function) was around 1 h; in series [1] (human, plasma, intravenous, 1.5 g, t1/2, mean (CV %), 1.5 g q8h, healthy adults, Day 10), 1.03 h; in series [1] (human, plasma, intravenous, terminal elimination half-life (t1/2β), healthy volunteers / normal renal function) it was around 1 h; in series [4] it was 1.78 h. Besides, the AUC(0-t) in series [1] (human, plasma, intravenous, 1.5 g) stood at 24400 ng·h/mL. In addition, the highest concentration (Cmax) in series [1] (human, plasma, intravenous, 1.5 g, 1.5 g q8h 1-hour infusion, healthy adults, Day 1) was 18400 ng/mL; in series [1] (human, plasma, intravenous, 1.5 g, 1.5 g q8h 1-hour infusion, healthy adults, Day 10), 18000 ng/mL. Moreover, the time to peak (Tmax) in series [1] (human, plasma, intravenous, 1.5 g, 1.5 g q8h, healthy adults, Day 1) turned out to be 1.02 h. Moreover, the “excreted in the urine as unchanged parent drug” value in series [1] (single 1.5 g IV dose of CXA-201, healthy male adults) is “More than 80%”. For the same molecule, in series [2], the fraction unbound is 0.7. In series [3], the “median AUC0-∞ increase vs normal renal function” value was 2.2 fold. Further, the “median Cmax increase vs normal renal function” value in series [3] is reported as 1.6 fold. Moreover, the “median AUC0-∞ increase vs dose-normalized exposure in normal renal function” value in series [3] was determined as 3.8 fold. In addition, in series [3], the “median Cmax increase vs dose-normalized exposure in normal renal function” value was 1.9 fold.

Regarding `Cn1c(N)c(NC(=O)NCCN)c[n+]1CC1=C(C(=O)O)N2C(=O)[C@@H](NC(=O)/C(=N\OC(C)(C)C(=O)O)c3nsc(N)n3)[C@H]2SC1` [Ceftolozane, (6R,7R)-3-[(5-amino-4-{[(2-aminoethyl)carbamoyl]amino}-1-methyl-1H-pyrazol-2-ium-2-yl)methyl]-7-({(2Z)-2-(5-amino-1,2,4-thiadiazol-3-yl)-2-[(1-carboxy-1-methylethoxy)imino]acetyl}amino)-8-oxo-5-thia-1-azabicyclo[4.2.0]oct-2-ene-2-carboxylate], in series [1] (human, in vivo), the AUC(0-t) amounted to 172000 ng·h/mL; the CL renal lay in the range of 56.8 to 112 mL/min; the “Cmax, mean (CV %)” value is 74.4 (14) μg/mL; the clearance is 68.3 to 112 mL/min. In series [1] (human, in vivo), the “t1/2, mean (CV %)” value is reported as 3.12 (22) h; the “tmax, median (minimum, maximum)” value was 1.07 (1.0, 1.1) h; the Cmax was found to be 69100 ng/mL; the time to peak (Tmax) amounted to 1.02 h. In series [1] (human, in vivo, t1/2, mean (CV %)), the half-life is 2.77 h. Besides, the half-life in series [1] (human, in vivo, terminal elimination half-life (t1/2β)) was around 2.5 h. Besides, the “excreted in the urine as unchanged parent drug” value in series [1] (male, human, in vivo, iv) is “greater than 95%”. In addition, the fraction unbound in series [2] is 0.79. In addition, in series [3], the “median AUC0-∞ increase vs normal renal function” value was determined as 2.5 fold, the “median Cmax increase vs normal renal function” value came out at 1.2 fold, the “median AUC0-∞ increase vs dose-normalized exposure in normal renal function” value came out at 4.4 fold and the “median Cmax increase vs dose-normalized exposure in normal renal function” value stood at 1.3 fold. Moreover, the half-life in series [4] is 5.85 h.
